This passage reports EC50 results from US20200031820A1, “3-CARBOXYLIC ACID PYRROLES AS NRF2 REGULATORS” (GLSXOSMITHKLINE INTELLECTUAL PROPERTY DEVELOPMENT LIMITED, priority 2016, published 2020).

The target in this test is T1, full length NRF2 protein and full length Keap1 protein (Homo sapiens, UniProt Q14145).
T1 construct: full length NRF2 protein and full length Keap1 protein; His
T1 sequence (Q14145 whole entry): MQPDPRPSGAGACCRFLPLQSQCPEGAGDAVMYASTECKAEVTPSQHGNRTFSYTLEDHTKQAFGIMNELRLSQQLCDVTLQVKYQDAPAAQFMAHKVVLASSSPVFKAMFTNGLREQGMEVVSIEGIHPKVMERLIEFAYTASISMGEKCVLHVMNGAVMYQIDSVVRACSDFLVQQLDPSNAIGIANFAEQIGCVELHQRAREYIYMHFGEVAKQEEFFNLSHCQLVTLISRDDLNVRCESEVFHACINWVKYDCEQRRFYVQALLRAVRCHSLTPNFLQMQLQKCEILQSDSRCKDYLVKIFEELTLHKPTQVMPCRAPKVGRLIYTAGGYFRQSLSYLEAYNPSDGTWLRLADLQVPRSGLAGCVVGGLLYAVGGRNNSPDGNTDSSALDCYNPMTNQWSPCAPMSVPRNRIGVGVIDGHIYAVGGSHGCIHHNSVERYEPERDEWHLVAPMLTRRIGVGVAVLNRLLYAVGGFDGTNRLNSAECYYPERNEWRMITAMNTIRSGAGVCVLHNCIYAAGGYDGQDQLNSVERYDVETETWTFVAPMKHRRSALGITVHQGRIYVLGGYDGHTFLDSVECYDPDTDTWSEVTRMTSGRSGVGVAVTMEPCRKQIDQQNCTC
The experiment in a line: NRF2-Keap1 TR-FRET Low Protein Assay. The class given is binding. Particulars: Keap1 FlagHis, biotin-NRF2. The text has this:
NRF2-Keap1 TR-FRET Low Protein Assay In the NRF2-Keap1 TR-FRET (time-resolved fluorescence resonance energy transfer) low protein assay, full length NRF2 protein and full length Keap1 protein (Keap1 exists a dimer) are used. The assay detects a compound's ability to displace the binding of Keap1 FlagHis with biotinylated Avi-NRF2 protein. Biotin-NRF2 binds to streptavidin-europium (a component of the detection mix) and Keap1 FlagHis is recognized by anti-Flag APC (allophycocyanin) antibody (also a component of the detection mix). If binding occurs between the two proteins, there will be an energy transfer from the Eu+3 (donor) at 615 nm to the APC (acceptor) at 665 nm. A potential NRF2 inhibitor will cause a reduction in the TR-FRET signal by interfering with the binding of Keap1 to NRF2.
Ten nanoliters of 100× compound dose response curves (serial 3-fold dilutions) in DMSO were stamped using an Echo liquid handling system (Labcyte) into 384-well, low volume, black assay plates (Greiner, #784076), with DMSO in columns 6 and 18. An additional 90 nl DMSO was added to each well, to bring the total volume to 100 nl per well. The top concentration of compound was located in columns 1 and 13, with the serial dilutions going across the row. All reagents were diluted in assay buffer (50 mM Tris, pH 8.0, 5 mM MgCl2, 100 mM NaCl, 0.005% BSA, 1 mM DTT, and 2 mM CHAPS. The BSA, DTT, and CHAPS were added to the assay buffer on the day of assay. Using a Multidrop Combi (Thermo Electron Corporation) equipped with a metal tip dispenser, 5 ul of 1.25 nM Keap1 FlagHis protein was added to all wells of the compound plate, with the exception of the wells in column 18. Wells in column 18 received 5 ul of assay buffer instead. Plates were centrifuged at 500 rpm for 1 minute, covered with a plate lid, and incubated at 37° C. for 2.25 hours. Plates were then removed from the incubator and allowed to cool to RT for 15 minutes. Five microliters of 2.5 nM biotin-NRF2 protein was then added to all wells of the plates and the plates were spun at 500 rpm for 1 minute, followed by incubating at 4° C. for 1.25 hours. The plates were then allowed to warm to RT for 15 minutes, followed by the addition of 10 ul of detection mix (1 nM Streptavidin Eu+ W1024 and 5 ug/ml mouse anti-DYKDDDDK IgG conjugated to SureLight APC antibody; both from Columbia Biosciences) to all wells. Plates were spun at 500 rpm for 1 minute, incubated for 1 hour at RT, and read on an Envision plate reader using a 320 nm excitation filter and 615 nm and 665 nm emission filters. Compound response (% inhibition) and potency (pIC50) were calculated based on the ratio of the two emissions (665 nm/615 nm) and then the transformed data is normalized against controls in the assay (control 1=1% DMSO in the presence of NRF2 and Keap1 protein and control 2=1% DMSO in the presence of only the NRF2 protein). Data analysis was handled using the software package Abase XE (Surrey, United Kingdom). The % inhibition values were calculated from the ratio (transformed) data by the equation:
100−(100*(compound response−average control 2)/(average control 1−average control2)).
For calculation of pIC50s, Abase XE used a four-parameter equation.
IC50s<10 nM (+++++), IC50s 10-100 nM (++++), IC50s 100 nM-1 uM (+++), IC50s 1-10 uM (++). & IC50s 10 uM-100 uM (+), IC50s >100 uM (−), or were not determined (ND).
Background: In TR-FRET formats the signal depends on donor and acceptor labels being close together.
Consider `C[C@H]1Cc2ccc(C(F)(F)F)cc2S(=O)(=O)N(C2CCc3c2cccc3-n2ccc(C(=O)O)c2C2CC2)C1` (mixture of isomers) [Example 12, 2-Cyclopropyl-1-(1-((S)-4-methyl-1,1-dioxido-8-(trifluoromethyl)-4,5-dihydrobenzo[f][1,2]thiazepin-2(3H)-yl)-2,3-dihydro-1H-inden-4-yl)-1H-pyrrole-3-carboxylic acid], for which the half-maximal effective concentration (EC50) (commonly the concentration that produces a half-maximal response) was in the range of 10000 to 100000 nM. With `C[C@H]1Cc2ccc(C(F)(F)F)cc2S(=O)(=O)N(Cc2cccc(-n3ccc(C(=O)O)c3[C@@H]3C[C@H]3c3cn(C)nn3)c2)C1` (racemic) [Example 1, 1-(3-(((S)-4-Methyl-1,1-dioxido-8-(trifluoromethyl)-4,5-dihydrobenzo[f]-[1,2]thiazepin-2(3H)-yl)methyl)phenyl)-2-(trans-2-(1-methyl-1H-1,2,3-triazol-4-yl)cyclopropyl)-1H-pyrrole-3-carboxylic acid], the EC50 fell in the range of 10 to 100 nM. As for `C[C@H]1Cc2cc(C(F)(F)F)ccc2S(=O)(=O)N(Cc2cccc(-n3ccc(C(=O)O)c3[C@@H]3C[C@H]3c3cn(C)nn3)c2)C1` (racemic) [Example 2, 1-(3-(((S)-4-methyl-1,1-dioxido-7-(trifluoromethyl)-4,5-dihydrobenzo[f][1,2]thiazepin-2(3H)-yl)methyl)phenyl)-2-(trans-2-(1-methyl-1H-1,2,3-triazol-4-yl)cyclopropyl)-1H-pyrrole-3-carboxylic acid], the figure is 10 to 100 nM; as for `Cc1c(CN2C[C@@H](C)Cc3ccc(C(F)(F)F)cc3S2(=O)=O)cccc1-n1ccc(C(=O)O)c1[C@@H]1C[C@H]1c1cn(C)nn1` (racemic) [Example 10, rac-2-(trans-2-(1-methyl-1H-1,2,3-triazol-4-yl)cyclopropyl)-1-(2-methyl-3-(((S)-4-methyl-1,1-dioxido-8-(trifluoromethyl)-4,5-dihydrobenzo[f][1,2]thiazepin-2(3H)-yl)methyl)phenyl)-1H-pyrrole-3-carboxylic acid], 100 to 1000 nM.

Regarding `Cc1ccc(CN2C[C@@H](C)Cc3ccc(C(F)(F)F)cc3S2(=O)=O)cc1-n1ccc(C(=O)O)c1[C@@H]1C[C@H]1c1cn(C)nn1` (racemic) [Example 11, rac-2-(trans-2-(1-methyl-1H-1,2,3-triazol-4-yl)cyclopropyl)-1-(2-methyl-5-(((S)-4-methyl-1,1-dioxido-8-(trifluoromethyl)-4,5-dihydrobenzo[f][1,2]thiazepin-2(3H)-yl)methyl)phenyl)-1H-pyrrole-3-carboxylic acid], the EC50 fell in the range of 1000 to 10000 nM.

In turn, `C[C@H](Oc1cccc(-c2cccc(-n3ccc(C(=O)O)c3[C@@H]3C[C@H]3c3cn(C)nn3)c2)c1)C1CCCCC1` (racemic) [Example 13, 1-(3′-((S)-1-Cyclohexylethoxy)-[1,1′-biphenyl]-3-yl)-2-(trans-2-(1-methyl-1H-1,2,3-triazol-4-yl)cyclopropyl)-1H-pyrrole-3-carboxylic acid] had a concentration for a half-maximal effect (EC50) of 100 to 1000 nM.

As for `CCC[C@@H]1CCCCN1C(=O)c1cccc(-c2cccc(-n3ccc(C(=O)O)c3[C@@H]3C[C@H]3c3cn(C)nn3)c2)c1` (racemic) [Example 14, 2-(trans-2-(1-methyl-1H-1,2,3-triazol-4-yl)cyclopropyl)-1-(3′-((R)-2-propylpiperidine-1-carbonyl)-[1,1′-biphenyl]-3-yl)-1H-pyrrole-3-carboxylic acid], the concentration giving a half-maximal response (EC50) lay in the range of 10 to 100 nM. As for `CCC[C@@H]1CCCCN1C(=O)c1cccc(-c2cccc(-n3ccc(C(=O)O)c3[C@@H]3C[C@H]3c3cn(C)nn3)c2)c1F` (racemic) [Example 15, 1-(2′-fluoro-3′-((R)-2-propylpiperidine-1-carbonyl)-[1,1′-biphenyl]-3-yl)-2-(trans-2-(1-methyl-1H-1,2,3-triazol-4-yl)cyclopropyl)-1H-pyrrole-3-carboxylic acid], the figure is 10 to 100 nM; as for `Cn1cc([C@@H]2C[C@H]2c2c(C(=O)O)ccn2-c2cccc(CN3Cc4cc(F)ccc4OC(C)(C)C3)c2)nn1` (racemic) [Example 19], 100 to 1000 nM; as for `Cn1cc([C@@H]2C[C@H]2c2c(C(=O)O)ccn2-c2cccc(CN3Cc4cc(Br)ccc4OC(C)(C)C3)c2)nn1` (racemic) [Example 20], 100 to 1000 nM.

`Cn1cc([C@@H]2C[C@H]2c2c(C(=O)O)ccn2-c2cccc(CN3Cc4ccccc4CC(C)(C)C3)c2)nn1` (racemic) [Example 21] showed an EC50 of 100 to 1000 nM.

`CCCC[C@H]1Cc2ccccc2S(=O)(=O)N(Cc2cccc(-n3ccc(C(=O)O)c3[C@@H]3C[C@H]3c3cn(C)nn3)c2)C1` [Example 3, 1-(3-(((S)-4-butyl-1,1-dioxido-4,5-dihydrobenzo[f][1,2]thiazepin-2(3H)-yl)methyl)phenyl)-2-((1R,2R)-2-(1-methyl-1H-1,2,3-triazol-4-yl)cyclopropyl)-1H-pyrrole-3-carboxylic acid] had an EC50 of 10 to 100 nM. As for `CCCC[C@H]1Cc2ccc(C(F)(F)F)cc2S(=O)(=O)N(Cc2cccc(-n3ccc(C(=O)O)c3[C@@H]3C[C@H]3c3cn(C)nn3)c2)C1` [Example 6, 1-(3-(((S)-4-butyl-1,1-dioxido-8-(trifluoromethyl)-4,5-dihydrobenzo[f][1,2]thiazepin-2(3H)-yl)methyl)phenyl)-2-((1R,2R)-2-(1-methyl-1H-1,2,3-triazol-4-yl)cyclopropyl)-1H-pyrrole-3-carboxylic acid], the figure is 10 to 100 nM; as for `CC[C@H]1Cc2cc(C(F)(F)F)ccc2S(=O)(=O)N(Cc2cccc(-n3ccc(C(=O)O)c3[C@@H]3C[C@H]3c3cn(C)nn3)c2)C1` [Example 7, 1-(3-(((S)-4-ethyl-1,1-dioxido-7-(trifluoromethyl)-4,5-dihydrobenzo[f][1,2]thiazepin-2(3H)-yl)methyl)phenyl)-2-((1R,2R)-2-(1-methyl-1H-1,2,3-triazol-4-yl)cyclopropyl)-1H-pyrrole-3-carboxylic acid], 10 to 100 nM; as for `C[C@H]1Cc2ccc(Br)cc2S(=O)(=O)N(Cc2cccc(-n3ccc(C(=O)O)c3[C@@H]3C[C@H]3c3cn(C)nn3)c2)C1` [Example 8, 1-(3-(((S)-8-bromo-4-methyl-1,1-dioxido-4,5-dihydrobenzo[f][1,2]thiazepin-2(3H)-yl)methyl)phenyl)-2-((1R,2R)-2-(1-methyl-1H-1,2,3-triazol-4-yl)cyclopropyl)-1H-pyrrole-3-carboxylic acid], 10 to 100 nM. The result for `CC[C@H]1Cc2ccc(Br)cc2S(=O)(=O)N(Cc2cccc(-n3ccc(C(=O)O)c3[C@@H]3C[C@H]3c3cn(C)nn3)c2)C1` [Example 9, 1-(3-(((S)-8-bromo-4-ethyl-1,1-dioxido-4,5-dihydrobenzo[f][1,2]thiazepin-2(3H)-yl)methyl)phenyl)-2-((1R,2R)-2-(1-methyl-1H-1,2,3-triazol-4-yl)cyclopropyl)-1H-pyrrole-3-carboxylic acid] reads less than 10 nM; that for `C[C@H](Oc1cccc(-c2cccc(-n3ccc(C(=O)O)c3[C@H]3C[C@@H]3c3cn(C)nn3)c2)c1)C1CCCCC1` [Example 17, 1-(3′-((S)-1-cyclohexylethoxy)-[1,1′-biphenyl]-3-yl)-2-((1S,2S)-2-(1-methyl-1H-1,2,3-triazol-4-yl)cyclopropyl)-1H-pyrrole-3-carboxylic acid], 100 to 1000 nM; that for `CCC[C@@H]1CCCCN1C(=O)c1cccc(-c2cccc(-n3ccc(C(=O)O)c3[C@@H]3C[C@H]3c3cn(C)nn3)c2)c1Br` [Example 22], 10 to 100 nM. With `CCC[C@@H]1CCCCN1C(=O)c1cc(F)cc(-c2cccc(-n3ccc(C(=O)O)c3[C@@H]3C[C@H]3c3cn(C)nn3)c2)c1` [Example 23], the 50% effective concentration (EC50) lay in the range of 10 to 100 nM. The result for `CCC[C@@H]1CCCCN1C(=O)c1cccc(-c2cccc(-n3ccc(C(=O)O)c3[C@@H]3C[C@H]3c3cn(C)nn3)c2)c1C(F)(F)F` [Example 24] reads 1000 to 10000 nM.
